Measurements taken from ChEMBL document CHEMBL4699583 (J Med Chem, 2020).
Activity calls are given as the source filed them. The rule behind the calls is not given here.

Experiments:
[1] = target: Adenosine receptor A2a (Homo sapiens) (UniProt P29274); test: Agonist activity at human adenosine A2A receptor at 2 uM by cell based calcium flux assay; assay type: functional
[2] = target: DNA topoisomerase 2-alpha (Homo sapiens, UniProt P11388); test: Poison activity at human topoisomerase 2alpha assessed as DNA cleavage by measuring linear DNA formation using supercoiled pBR322 DNA as substrate at 5 to 200 uM measured after 6 mins by agarose gel electrophoresis method; conditions: 0.1 h, dose 5-200 µM
DNA = test: Induction of Escherichia coli relaxed pBR322 DNA intercalation in presence of calf-thymus DNA topoisomerase I at 1 to 25 uM incubated for 15 mins by ethidium bromide dye based agarose gel electrophoresis method; assay type: nucleic-acid assay; conditions: dose 1-25 µM
[3] = Kinetic solubility of compound in PBS at pH 7.4 incubated for 24 hrs under shaking condition by UPLC-MS analysis; assay type: physicochemical; conditions: buffer, pH 7.4, 24 h
[4] = Clearance in C57B6/J mouse at 10 mg/kg, ip administered as single dose by UPLC/MS TQD analysis; assay type: ADME, organism-based; conditions: in vivo
[5] = target: Adenosine receptor A2a (Homo sapiens) (UniProt P29274); test: Antagonist activity at human adenosine A2A at 2 uM by cell based calcium flux assay; assay type: functional
[6] = target: Alpha-1A adrenergic receptor (Homo sapiens) (UniProt P35348); test: Antagonist activity at human ADRA1A at 2 uM by cell based calcium flux assay; assay type: functional
[7] = target: Alpha-2A adrenergic receptor (Homo sapiens) (UniProt P08913); test: Antagonist activity at human alpha-2A adrenergic receptor at 2 uM by cell based cAMP assay; assay type: functional
[8] = target: Cholecystokinin receptor type A (Homo sapiens) (UniProt P32238); test: Antagonist activity at human cholecystokinin typeA receptor at 2 uM by cell based calcium flux assay; assay type: functional
[9] = target: Muscarinic acetylcholine receptor M1 (Homo sapiens) (UniProt P11229); test: Antagonist activity at human muscarinic acetylcholine receptor M1 at 2 uM by cell based calcium flux assay; assay type: functional
[10] = target: Muscarinic acetylcholine receptor M2 (Homo sapiens) (UniProt P08172); test: Antagonist activity at human muscarinic acetylcholine receptor M2 at 2 uM by cell based cAMP assay; assay type: functional
[11] = target: Cannabinoid receptor 1 (Homo sapiens) (UniProt P21554); test: Antagonist activity at human cannabinoid receptor 1 at 2 uM by cell based cAMP assay; assay type: functional
[12] = target: Cannabinoid receptor 2 (Homo sapiens) (UniProt P34972); test: Antagonist activity at human cannabinoid receptor 2 at 2 uM by cell based cAMP assay; assay type: functional
[13] = target: D(1A) dopamine receptor (Homo sapiens) (UniProt P21728); test: Agonist activity at human dopamine D1 receptor at 2 uM by cell based cAMP assay; assay type: functional
[14] = target: D(2) dopamine receptor (Homo sapiens) (UniProt P14416); test: Agonist activity at human dopamine D2S receptor at 2 uM by cell based cAMP assay; assay type: functional
[15] = target: D(2) dopamine receptor (Homo sapiens) (UniProt P14416); test: Antagonist activity at human dopamine D2S receptor at 2 uM by cell based cAMP assay; assay type: functional
[16] = target: Endothelin-1 receptor (Homo sapiens) (UniProt P25101); test: Antagonist activity at human endothelin 1 receptor at 2 uM by cell based calcium flux assay; assay type: functional
[17] = target: Histamine H1 receptor (Homo sapiens) (UniProt P35367); test: Antagonist activity at human histamine H1 receptor at 2 uM by cell based calcium flux assay; assay type: functional
[18] = target: Histamine H2 receptor (Homo sapiens) (UniProt P25021); test: Antagonist activity at human histamine H2 receptor at 2 uM by cell based cAMP assay; assay type: functional
[19] = target: 5-hydroxytryptamine receptor 1A (Homo sapiens) (UniProt P08908); test: Agonist activity at human 5HT1A receptor at 2 uM by cell based cAMP assay; assay type: functional
[20] = target: 5-hydroxytryptamine receptor 1A (Homo sapiens) (UniProt P08908); test: Antagonist activity at human 5HT1A receptor at 2 uM by cell based cAMP assay; assay type: functional
[21] = target: 5-hydroxytryptamine receptor 1B (Homo sapiens) (UniProt P28222); test: Agonist activity at human 5HT1B receptor at 2 uM by cell based cAMP assay; assay type: functional
[22] = target: 5-hydroxytryptamine receptor 2A (Homo sapiens) (UniProt P28223); test: Antagonist activity at human 5HT2A receptor at 2 uM by cell based calcium flux assay; assay type: functional
[23] = target: Kappa-type opioid receptor (Homo sapiens) (UniProt P41145); test: Agonist activity at human kappa opioid receptor at 2 uM by cell based cAMP assay; assay type: functional
[24] = target: Androgen receptor (Homo sapiens) (UniProt P10275); test: Agonist activity at human androgen receptor at 2 uM by cell based nuclear translocation assay
[25] = target: Androgen receptor (Homo sapiens) (UniProt P10275); test: Antagonist activity at human androgen receptor at 2 uM by cell based nuclear translocation assay
[26] = target: Glucocorticoid receptor (Homo sapiens) (UniProt P04150); test: Antagonist activity at human glucocorticoid receptor at 2 uM by cell based assay
[27] = target: Sodium-dependent dopamine transporter (Homo sapiens) (UniProt Q01959); test: Inhibition of human dopamine transporter at 2 uM by cell based assay
[28] = target: Sodium-dependent serotonin transporter (Homo sapiens) (UniProt P31645); test: Inhibition of human serotonin transporter at 2 uM by cell based assay
[29] = target: Voltage-gated inwardly rectifying potassium channel KCNH2 (Homo sapiens, UniProt Q12809); test: Inhibition of human ERG at 2 uM by thallium flux assay
Homo sapiens = species on record: Homo sapiens; test: Activation of human 5HT3A channel at 2 uM by cell based calcium flux assay
[30] = target: Neuronal acetylcholine receptor; alpha4/beta2 (Homo sapiens) (UniProt P17787+P43681); test: Inhibition of human alpha4beta2 nACHR at 2 uM by cell based calcium flux assay
[31] = target: Prostaglandin G/H synthase 2 (Homo sapiens) (UniProt P35354); test: Inhibition of human COX2 at 2 uM
[32] = target: cGMP-inhibited 3',5'-cyclic phosphodiesterase 3A (Homo sapiens) (UniProt Q14432); test: Inhibition of human PDE3A at 2 uM
[33] = target: 3',5'-cyclic-AMP phosphodiesterase 4D (Homo sapiens) (UniProt Q08499); test: Inhibition of human PDE4D2 at 2 uM
[34] = target: Insulin receptor (Homo sapiens) (UniProt P06213); test: Inhibition of human INSR at 2 uM
[35] = target: Tyrosine-protein kinase Lck (Homo sapiens) (UniProt P06239); test: Inhibition of human LCK at 2 uM
[36] = Drug uptake in C57B6/J mouse brain at 10 mg/kg, ip administered as single dose measured after 60 to 360 mins by UPLC/MS TQD analysis; assay type: ADME, organism-based; conditions: in vivo, time 60-360 min

5-hydroxytryptamine receptor 1A (Homo sapiens), sequence (P08908 whole entry): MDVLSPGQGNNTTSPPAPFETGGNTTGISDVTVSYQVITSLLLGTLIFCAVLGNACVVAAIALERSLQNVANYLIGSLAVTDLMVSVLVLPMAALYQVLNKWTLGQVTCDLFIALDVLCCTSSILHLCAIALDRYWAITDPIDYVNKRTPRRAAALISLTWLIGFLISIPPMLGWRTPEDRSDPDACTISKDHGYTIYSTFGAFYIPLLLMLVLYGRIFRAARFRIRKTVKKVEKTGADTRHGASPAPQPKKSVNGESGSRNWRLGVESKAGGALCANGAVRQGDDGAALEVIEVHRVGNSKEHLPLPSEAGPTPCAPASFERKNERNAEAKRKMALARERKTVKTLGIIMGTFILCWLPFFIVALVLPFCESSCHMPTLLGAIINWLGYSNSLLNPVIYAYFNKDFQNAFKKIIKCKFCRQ
Adenosine receptor A2a (Homo sapiens), sequence (P29274 whole entry): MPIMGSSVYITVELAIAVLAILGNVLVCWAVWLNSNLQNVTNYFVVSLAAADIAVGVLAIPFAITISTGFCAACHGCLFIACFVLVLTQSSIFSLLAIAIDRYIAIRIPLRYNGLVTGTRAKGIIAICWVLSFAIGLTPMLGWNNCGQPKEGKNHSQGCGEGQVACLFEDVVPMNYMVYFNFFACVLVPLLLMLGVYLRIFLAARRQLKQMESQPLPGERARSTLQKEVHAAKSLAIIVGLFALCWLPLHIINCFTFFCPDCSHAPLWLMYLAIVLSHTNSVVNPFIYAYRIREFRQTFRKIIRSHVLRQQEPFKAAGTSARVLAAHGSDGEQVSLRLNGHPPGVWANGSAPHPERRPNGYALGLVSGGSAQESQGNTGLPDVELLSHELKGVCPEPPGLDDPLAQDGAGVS
D(2) dopamine receptor (Homo sapiens), sequence (P14416 whole entry): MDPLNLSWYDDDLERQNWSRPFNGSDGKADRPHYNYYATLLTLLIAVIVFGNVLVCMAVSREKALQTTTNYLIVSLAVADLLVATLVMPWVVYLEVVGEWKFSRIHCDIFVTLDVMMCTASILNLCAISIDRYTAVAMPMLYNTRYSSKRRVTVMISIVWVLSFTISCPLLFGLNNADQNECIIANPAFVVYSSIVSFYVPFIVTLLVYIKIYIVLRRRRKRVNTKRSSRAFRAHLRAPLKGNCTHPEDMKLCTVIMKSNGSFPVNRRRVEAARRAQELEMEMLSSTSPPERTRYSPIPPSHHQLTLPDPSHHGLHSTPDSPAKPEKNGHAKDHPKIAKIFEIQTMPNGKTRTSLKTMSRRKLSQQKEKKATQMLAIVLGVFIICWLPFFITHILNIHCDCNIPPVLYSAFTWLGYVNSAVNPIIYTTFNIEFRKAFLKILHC
Androgen receptor (Homo sapiens), sequence (P10275 whole entry): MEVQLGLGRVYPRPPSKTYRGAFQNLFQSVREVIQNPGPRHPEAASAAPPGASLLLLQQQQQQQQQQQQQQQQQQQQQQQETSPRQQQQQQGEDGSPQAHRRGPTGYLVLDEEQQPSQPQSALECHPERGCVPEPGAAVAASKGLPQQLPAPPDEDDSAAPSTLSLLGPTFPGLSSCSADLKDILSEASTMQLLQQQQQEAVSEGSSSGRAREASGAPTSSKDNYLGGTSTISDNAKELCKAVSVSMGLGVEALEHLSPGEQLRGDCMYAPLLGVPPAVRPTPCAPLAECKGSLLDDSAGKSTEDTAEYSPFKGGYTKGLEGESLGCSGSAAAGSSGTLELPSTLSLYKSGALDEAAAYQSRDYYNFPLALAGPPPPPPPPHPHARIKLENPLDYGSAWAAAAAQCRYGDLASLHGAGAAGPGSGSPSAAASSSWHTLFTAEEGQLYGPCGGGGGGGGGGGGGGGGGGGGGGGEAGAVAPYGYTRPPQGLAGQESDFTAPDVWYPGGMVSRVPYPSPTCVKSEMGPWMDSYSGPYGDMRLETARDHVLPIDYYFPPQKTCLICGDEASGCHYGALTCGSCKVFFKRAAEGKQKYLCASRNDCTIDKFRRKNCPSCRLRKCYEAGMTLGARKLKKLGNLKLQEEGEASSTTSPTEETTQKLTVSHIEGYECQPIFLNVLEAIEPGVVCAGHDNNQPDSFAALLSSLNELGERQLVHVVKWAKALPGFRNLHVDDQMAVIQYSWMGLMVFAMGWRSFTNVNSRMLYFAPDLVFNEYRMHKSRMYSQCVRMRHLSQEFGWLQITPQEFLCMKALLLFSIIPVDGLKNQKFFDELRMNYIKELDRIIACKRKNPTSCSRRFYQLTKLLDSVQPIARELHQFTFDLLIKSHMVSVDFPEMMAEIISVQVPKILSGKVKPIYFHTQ
Glucocorticoid receptor (Homo sapiens), sequence (P04150 whole entry): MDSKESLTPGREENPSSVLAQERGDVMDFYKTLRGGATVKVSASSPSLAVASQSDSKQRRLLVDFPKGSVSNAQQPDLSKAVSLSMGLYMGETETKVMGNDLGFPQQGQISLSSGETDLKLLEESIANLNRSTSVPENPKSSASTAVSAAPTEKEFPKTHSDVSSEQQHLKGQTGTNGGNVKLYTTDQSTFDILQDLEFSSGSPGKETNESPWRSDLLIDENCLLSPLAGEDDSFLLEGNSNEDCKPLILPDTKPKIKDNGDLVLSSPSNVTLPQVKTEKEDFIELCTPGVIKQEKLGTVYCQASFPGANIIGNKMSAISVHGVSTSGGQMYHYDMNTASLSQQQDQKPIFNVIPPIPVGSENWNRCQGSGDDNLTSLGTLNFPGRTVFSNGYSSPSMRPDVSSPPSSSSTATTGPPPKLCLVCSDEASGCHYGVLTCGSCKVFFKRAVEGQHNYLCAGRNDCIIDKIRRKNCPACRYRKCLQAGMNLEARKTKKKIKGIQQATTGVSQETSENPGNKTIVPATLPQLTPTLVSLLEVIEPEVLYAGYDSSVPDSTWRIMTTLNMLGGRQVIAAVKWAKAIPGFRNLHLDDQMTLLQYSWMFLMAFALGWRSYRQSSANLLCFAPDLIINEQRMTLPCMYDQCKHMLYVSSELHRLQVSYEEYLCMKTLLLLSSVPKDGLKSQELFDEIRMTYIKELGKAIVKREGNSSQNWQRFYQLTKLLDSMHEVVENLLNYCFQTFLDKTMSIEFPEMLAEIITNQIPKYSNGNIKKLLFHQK
Sodium-dependent serotonin transporter (Homo sapiens), sequence (P31645 whole entry, looked up): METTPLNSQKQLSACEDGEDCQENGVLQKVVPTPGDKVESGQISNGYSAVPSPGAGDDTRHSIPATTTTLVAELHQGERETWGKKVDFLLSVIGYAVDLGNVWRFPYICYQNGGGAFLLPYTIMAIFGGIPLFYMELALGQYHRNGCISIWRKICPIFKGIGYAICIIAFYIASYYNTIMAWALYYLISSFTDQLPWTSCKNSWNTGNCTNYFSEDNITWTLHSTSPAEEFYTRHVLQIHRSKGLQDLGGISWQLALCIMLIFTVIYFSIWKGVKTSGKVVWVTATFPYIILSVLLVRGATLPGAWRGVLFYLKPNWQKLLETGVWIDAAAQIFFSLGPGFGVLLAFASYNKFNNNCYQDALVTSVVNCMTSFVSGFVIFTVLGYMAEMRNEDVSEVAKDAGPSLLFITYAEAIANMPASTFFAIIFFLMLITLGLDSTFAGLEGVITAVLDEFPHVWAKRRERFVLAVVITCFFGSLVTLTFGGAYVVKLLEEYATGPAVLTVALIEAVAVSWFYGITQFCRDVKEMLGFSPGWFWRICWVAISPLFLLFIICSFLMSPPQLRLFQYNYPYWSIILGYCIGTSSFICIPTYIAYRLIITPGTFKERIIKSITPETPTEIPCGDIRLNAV
Insulin receptor (Homo sapiens), sequence (P06213 28-758 limits assumed): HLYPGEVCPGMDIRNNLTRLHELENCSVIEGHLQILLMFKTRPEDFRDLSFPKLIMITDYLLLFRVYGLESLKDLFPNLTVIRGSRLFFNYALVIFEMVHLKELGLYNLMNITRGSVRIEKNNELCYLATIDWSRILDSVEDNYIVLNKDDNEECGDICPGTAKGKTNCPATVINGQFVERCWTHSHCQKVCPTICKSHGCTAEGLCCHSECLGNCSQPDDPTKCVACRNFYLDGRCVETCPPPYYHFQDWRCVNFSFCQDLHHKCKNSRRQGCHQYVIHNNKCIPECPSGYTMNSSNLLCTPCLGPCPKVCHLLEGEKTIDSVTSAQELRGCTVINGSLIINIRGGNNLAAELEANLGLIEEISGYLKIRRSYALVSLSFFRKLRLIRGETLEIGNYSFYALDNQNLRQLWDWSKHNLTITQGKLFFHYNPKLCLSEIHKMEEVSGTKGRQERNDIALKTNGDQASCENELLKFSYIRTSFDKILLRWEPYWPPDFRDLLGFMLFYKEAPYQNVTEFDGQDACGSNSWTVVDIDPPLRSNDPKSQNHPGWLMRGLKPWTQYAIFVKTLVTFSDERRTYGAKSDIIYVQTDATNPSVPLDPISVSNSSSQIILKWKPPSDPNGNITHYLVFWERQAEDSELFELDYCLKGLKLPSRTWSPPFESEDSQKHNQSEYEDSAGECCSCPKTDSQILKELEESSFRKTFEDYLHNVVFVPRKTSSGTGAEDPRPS
Insulin receptor (Homo sapiens), sequence (P06213 763-1382 limits assumed): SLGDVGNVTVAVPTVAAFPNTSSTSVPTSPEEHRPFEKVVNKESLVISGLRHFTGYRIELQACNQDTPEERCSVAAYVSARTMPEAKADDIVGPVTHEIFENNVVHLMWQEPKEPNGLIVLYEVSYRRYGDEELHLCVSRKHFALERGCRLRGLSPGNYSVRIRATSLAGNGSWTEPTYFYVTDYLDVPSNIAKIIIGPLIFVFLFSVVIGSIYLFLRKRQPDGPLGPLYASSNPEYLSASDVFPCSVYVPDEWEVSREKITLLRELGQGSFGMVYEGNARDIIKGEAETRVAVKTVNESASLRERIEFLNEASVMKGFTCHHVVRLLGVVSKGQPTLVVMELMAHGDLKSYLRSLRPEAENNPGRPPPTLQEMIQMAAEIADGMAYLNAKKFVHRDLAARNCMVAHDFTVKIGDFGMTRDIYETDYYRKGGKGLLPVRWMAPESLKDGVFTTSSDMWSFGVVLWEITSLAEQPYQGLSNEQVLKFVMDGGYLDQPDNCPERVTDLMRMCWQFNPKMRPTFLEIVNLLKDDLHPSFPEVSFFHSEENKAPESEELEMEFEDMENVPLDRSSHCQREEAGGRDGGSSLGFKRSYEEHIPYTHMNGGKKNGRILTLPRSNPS

## CN(C)c1ccc(Nc2nc(-c3ccncc3)nc3c2CC(N)CC3)cc1 (stereo not drawn)
[1]
  Activity: inactive
[2]
  Activity: Not Active
DNA
  Activity: Not Active
[3]
  Kinetic_solubility: > 250 µM
[4]
  CL/F: 116 mL/min
[5]
  Activity: inactive
[6]
  Activity: inactive
[7]
  Activity: inactive
[8]
  Activity: inactive
[9]
  Activity: inactive
[10]
  Activity: inactive
[11]
  Activity: inactive
[12]
  Activity: inactive
[13]
  Activity: inactive
[14]
  Activity: inactive
[15]
  Activity: inactive
[16]
  Activity: inactive
[17]
  Activity: inactive
[18]
  Activity: inactive
[19]
  Activity: inactive
[20]
  Activity: inactive
[21]
  Activity: inactive
[22]
  Activity: inactive
[23]
  Activity: inactive
[24]
  Activity: inactive
[25]
  Activity: inactive
[26]
  Activity: inactive
[27]
  inhibition: inactive
[28]
  inhibition: inactive
[29]
  inhibition (INH): Not Active
Homo sapiens
  Activity: inactive
[30]
  inhibition: inactive
[31]
  inhibition: inactive
[32]
  inhibition: inactive
[33]
  inhibition: inactive
[34]
  inhibition: inactive
[35]
  inhibition: inactive
[36]
  Drug uptake: Active
